Our source for the MIC values is patent US20220002279A1, “NOVEL IMIDAZOLE DERIVATIVE” (priority 2018, published 2022).

Broadly, the MIC is the lowest concentration that inhibits growth of the organism.

Converted amounts (≈) assume the structure as drawn. Some results are limits rather than exact numbers.

Holding throughout (assay): Antimicrobial activity, MIC by broth microdilution
Common to all, as to format: cell-based
For orientation: Dilution methods test growth across graded concentrations, often in twofold steps.

The subject of test [1] is Pseudomonas aeruginosa strain ATCC27853. The conditions noted are these: ATCC27853, 18 h, cation-adjusted Mueller-Hinton broth, about 5×10^5 CFU/mL, 35° C., about 18 hours, read-out: MIC Pseudomonas aeruginosa ATCC27853. From the text: (§1) Test Example 4 Evaluation of the Antimicrobial Activity
(§2) For minimum inhibitory concentration (MIC) measurement, the following broth microdilution method was applied as adapted from the standard procedure recommended by the CLSI (Clinical and Laboratory Standards Institute).
(§3) The bacteria used were Pseudomonas aeruginosa strain ATCC27853, Escherichia coli strain ATCC25922, and Klebsiella pneumoniae strain ATCC13883. After culture overnight on a heart infusion agar medium, the cells of a test bacterium were scraped off, and a bacterial solution suspended to have a turbidity of level 0.5 on the McFarland scale was diluted and used as an inoculum solution. The inoculum solution was inoculated in a cation-adjusted Mueller-Hinton broth medium containing a test compound so that the final inoculation concentration was about 5×10^5 CFU/mL, and cultured at 35° C. for about 18 hours. A minimum drug concentration at which no cell growth was visible to the naked eye was designated as MIC. […] In the table, ND represents the case where suppression of the cell growth in a drug concentration-dependent manner was not observed (Not Determined), and NT represents that no test was conducted (Not Tested).

Test [2] relates to Escherichia coli strain ATCC25922. As to conditions: ATCC25922, 18 h, cation-adjusted Mueller-Hinton broth, about 5×10^5 CFU/mL, 35° C., about 18 hours, read-out: MIC Escherichia coli ATCC25922.
Source text: as §1, §2, §3

The subject of test [3] is Klebsiella pneumoniae strain ATCC13883. The conditions noted are these: ATCC13883, cation-adjusted Mueller-Hinton broth, about 5×10^5 CFU/mL, 35° C., about 18 hours, read-out: MIC Klebsiella pneumoniae ATCC13883.
Source text: as §1, §2, §3

Regarding `C[C@H](O)c1nccn1Cc1cc(-c2ccc(C#CCN)cc2)on1` [Compound 30, (1S)-1-[l-({5-[4-(3-aminoprop-1-yn-1-yl)phenyl]-1,2-oxazol-3-yl}methyl)-1H-imidazol-2-yl]ethan-1-ol], the minimal inhibitory concentration (MIC) in test [1] was 64 µg/mL (≈ 199 µM); in test [2], 64 µg/mL (≈ 199 µM); in test [3], over 128 µg/mL.
Turning to `C[C@H](O)c1nccn1[C@H](CN)c1cc(-c2ccc(C#C[C@@H]3[C@H]4CN(CCCC(=O)O)C[C@@H]34)cc2)on1` [Compound 113, 4-{(1R,5S,6s)-6-[(4-{3-[(1R)-2-amino-1-{2-[(1S)-1-hydroxyethyl]-1H-imidazol-1-yl}ethyl]-1,2-oxazol-5-yl}phenyl)ethynyl]-3-azabicyclo[3.1.0]hexan-3-yl}butanoic acid], the MIC in test [1] stood at 4 µg/mL (≈ 8.17 µM); in test [2] it was 4 µg/mL (≈ 8.17 µM); in test [3], 16 µg/mL (≈ 32.7 µM).
With `C[C@H](O)c1nccn1[C@H](CN)c1cc(-c2ccc(C#C[C@H]3C[C@H](NC4COC4)C3)cc2)on1` [Compound 133, (1S)-1-{1-[(1R)-2-amino-1-{5-[4-({trans-3-[(oxetan-3-yl)amino]cyclobutyl}ethynyl)phenyl]-1,2-oxazol-3-yl}ethyl]-1H-imidazol-2-yl} ethan-1-ol], the minimum inhibitory concentration (MIC) in test [1] was 8 µg/mL (≈ 17.9 µM); in test [2], 1 µg/mL (≈ 2.23 µM); in test [3] it was 4 µg/mL (≈ 8.94 µM).
In the same order, the values of `C[C@H](O)c1nccn1[C@H](CN)c1cc(-c2ccc(C#C[C@@H]3[C@H]4CN(CCCO)C[C@@H]34)cc2)on1` [Compound 132, 3-{(1R,5S,6s)-6-[(4-{3-[(1R)-2-amino-1-{2-[(1S)-1-hydroxyethyl]-1H-imidazol-1-yl}ethyl]-1,2-oxazol-5-yl}phenyl)ethynyl]-3-azabicyclo[3.1.0]hexan-3-yl) propan-1-ol] are 2 µg/mL (≈ 4.33 µM), 8 µg/mL (≈ 17.3 µM) and 8 µg/mL (≈ 17.3 µM).
The corresponding values for `C[C@H](O)c1nccn1Cc1cc(-c2ccc(C#C[C@H]3C[C@H](NC4COC4)C3)cc2)on1` [Compound 135, (S)-1-(1-((5-(4-(((1r,3S)-3-(oxetan-3-ylamino)cyclobutyl)ethynyl)phenyl)isoxazol-3-yl)methyl)-1H-imidazol-2-yl)ethanol] are 32 µg/mL (≈ 76.5 µM), 0.5 µg/mL (≈ 1.19 µM) and 2 µg/mL (≈ 4.78 µM).
Take `C[C@H](O)c1nccn1[C@H](CN)c1cc(-c2ccc(C#C[C@@H]3[C@H]4CN(C(=O)C(N)=O)C[C@@H]34)cc2)on1` [Compound 124, 2-{(1R,5S,6s)-6-[(4-{3-[(1R)-2-amino-1-{2-[(1S)-1-hydroxyethyl]-1H-imidazol-1-yl}ethyl]-1,2-oxazol-5-yl}phenyl)ethynyl]-3-azabicyclo[3.1.0]hexan-3-yl}-2-oxoacetamide]: the minimal inhibitory concentration (MIC) was determined as 2 µg/mL (≈ 4.21 µM) in test [1], 2 µg/mL (≈ 4.21 µM) in test [2] and 4 µg/mL (≈ 8.43 µM) in test [3].
Turning to `C[C@H](O)c1nccn1Cc1cc(-c2ccc(C#C[C@@H]3[C@H]4CN(CCCC(=O)O)C[C@@H]34)cc2)on1` [Compound 67, 4-[(1R,5S,6s)-6-({4-[3-({2-[(1S)-1-Hydroxyethyl]-1H-imidazol-1-yl}methyl)-1,2-oxazol-5-yl]phenyl}ethynyl)-3-azabicyclo[3.1.0]hexan-3-yl]butanoic acid], the MIC in test [1] amounted to 8 µg/mL (≈ 17.4 µM); in test [2], 2 µg/mL (≈ 4.34 µM); in test [3], 4 µg/mL (≈ 8.69 µM).
In the same order, the values of `COCCN1C[C@@H]2[C@@H](C#Cc3ccc(-c4cc([C@@H](CN)n5ccnc5[C@H](C)O)no4)cc3)[C@@H]2C1` [Compound 101, (1S)-1-(1-{(1R)-2-Amino-1-[5-(4-{[(1R,5S,6s)-3-(2-methoxyethyl)-3-azabicyclo[3.1.0]hexan-6-yl]ethynyl}phenyl)-1,2-oxazol-3-yl]ethyl}-1H-imidazol-2-yl)ethan-1-ol] are 2 µg/mL (≈ 4.33 µM), 0.5 µg/mL (≈ 1.08 µM) and 1 µg/mL (≈ 2.17 µM).
Consider `C[C@H](O)c1nccn1Cc1cc(-c2ccc(C#C[C@H]3C[C@H](N)C3)cc2)on1` [Compound 23, (1S)-1-{1-[(5-(4-[(trans-3-aminocyclobutyl)ethynyl]phenyl}-1,2-oxazol-3-yl)methyl]-1H-imidazol-2-yl}ethan-1-ol], for which the minimal inhibitory concentration (MIC) in test [1] was found to be 16 µg/mL (≈ 44.1 µM); in test [2], 4 µg/mL (≈ 11 µM); in test [3], 8 µg/mL (≈ 22.1 µM).
